{"source": "patent US20260250519A1", "about": "“Copper Containing Compounds and Compositions for Antimicrobial Paint and Coating” (ARXADA, LLC, priority 2022, published 2026)", "key": {"[1]": {"experiment": "Compatibility of copper compounds in flat wall paint, visual assessment of dry film for grits", "assay_type": "physicochemical", "settings": "600 ppm Cu in acrylic flat wall paint; dry film inspected for grits", "method": "The compatibilities of copper compounds in paint were evaluated via visual assessment of dry film appearance of a flat wall paint (50% PVC, 35% Solid Vol, 45 g/L VOC, Table 1)."}, "[2]": {"test_system": "Escherichia coli (ATCC 8739)", "experiment": "Modified JIS Z2801 antibacterial efficacy in dry paint film (μBCC, ZnO)", "assay_type": "cell-based", "settings": "ZnO 0 ppm in flat wall paint; for 2 hr Contact Time % ↓ / 2 hr Contact Time Log10 ↓: relative to blank paint", "method": "(§1) In brief, μBCC dispersion and optional ZnO dispersion (25 wt %) were added into a flat wall paint (50% PVC, 35% Solid Vol, 45 g/L VOC, Table 1) for target Cu and ZnO level, respectively. The paints were brushed onto the sterilized plastic filter paper. Each side of the filter paper was painted twice and the resulting coated paper was dried at ambient condition for 3 days. The dried coatings were then leached against 10 L water for 24 hours (4 water changes for the first 8 hour). Each of three (3) bacterial inoculum (0.4 mL): Escherichia coli (ATCC 8739), Staphylococcus aureus (ATCC 6538), Pseudomonas aeruginosa (ATCC 15442) was used to inoculate the dry film (40 mm×40 mm) of test paint to achieve 1.0 to 4.0×10^5 cfm/mL of inoculum concentration per each bacteria on dry surface of each test paint. The test paints were incubated at 35±1° C. and 90% relative humidity (RH) for 2 hour. The degrees of bacterial contamination of all samples were determined relative to blank paint via viable cell count of bacteria by agar plate culture method."}, "[3]": {"test_system": "Pseudomonas aeruginosa (ATCC 15442)", "experiment": "Modified JIS Z2801 antibacterial efficacy in dry paint film (μBCC, ZnO)", "assay_type": "cell-based", "settings": "ZnO 0 ppm in flat wall paint; for 2 hr Contact Time % ↓ / 2 hr Contact Time Log10 ↓: relative to blank paint", "method": "as §1"}, "[4]": {"test_system": "Staphylococcus aureus (ATCC 6538)", "experiment": "Modified JIS Z2801 antibacterial efficacy in dry paint film (μBCC, ZnO)", "assay_type": "cell-based", "settings": "ZnO 0 ppm in flat wall paint; for 2 hr Contact Time % ↓ / 2 hr Contact Time Log10 ↓: relative to blank paint", "method": "as §1"}, "[5]": {"test_system": "Pseudomonas aeruginosa (ATCC 15442)", "experiment": "Interim EPA method for antimicrobial surface coatings, flat wall paint", "assay_type": "cell-based", "settings": "1670 ppm in flat wall paint", "method": "(§2) The antibacterial efficacies of copper-containing composition in dry paint film were evaluated using an interim EPA method (Interim Method for Evaluating the Efficacy of Antimicrobial Surface Coatings: Oct. 2, 2020). In brief, μBCC dispersion was added into a flat wall paint (38% Solid Vol, <50 g/L VOC) for target Cu level. The paints were drawn-down onto the sterilized steel substrate (1 inch by 1 inch of AISI type 304 stainless steel). The resulting coated substrate was dried at ambient condition for at least 24 hours. Each of two (2) bacterial inoculum ([…]): Staphylococcus aureus (ATCC 6538) and Pseudomonas aeruginosa (ATCC 15442) was used to inoculate the dry film of test paint to achieve 10^4 to 10^5 cfm/carrier of each bacteria on dry surface of each test paint. The test paints were incubated at 22° C. and 30-40% RH for 2 hours. The degrees of bacterial contamination were determined via viable cell count for antibacterial efficacy relative to the uncoated substrate."}, "[6]": {"test_system": "Staphylococcus aureus (ATCC 6538)", "experiment": "Interim EPA method for antimicrobial surface coatings, flat wall paint", "assay_type": "cell-based", "settings": "Cu 1670 ppm in flat wall paint", "method": "as §2"}, "[7]": {"test_system": "Aspergillus niger (ATCC 6275), Aureobasidium pullulans (ATCC 9348) and Penicillium citrinum (ATCC 9849)", "experiment": "ASTM resistance to growth of mold on interior coatings in an environmental chamber", "assay_type": "cell-based", "settings": "for antifungal test pass/fail: Pass = rating 8-10 (Table 9); for Avg Rating: 4 weeks in chamber", "method": "Two coatings were brushed onto both faces and all edges of wood panel (allowing 1 day between coats). The resulting coated panels were dried at 23±2° C. and 50±5% relative humidity for 4 days. […] In the environmental chamber, the dried coated panels were hung vertically with the bottom approximately 3 inch above the surface of the inoculated soil and with sufficient spacing to allow free circulation of air and to prevent contact between panels or with wall surfaces. […] The degrees of fungal contamination were assessed using the rating scale in Table 9."}, "[8]": {"settings": "no Cu additive, Quat level 2000 ppm"}}, "note": "Entries after “also recorded” stand apart in the source; their conditions may differ.", "data": [{"compound": "O=C([O-])[O-].[Cu+2].[Cu+2].[OH-].[OH-]", "note": "[μBCC, Micronized basic copper carbonate]", "values": [{"measurement": "Compatibilities of Copper Compounds in Paint", "setting": "[1]", "value": "compatible; also recorded: Compatible (no grits)"}, {"measurement": "2 hr Contact Time Avg", "setting": "[2]; Cu 165 ppm", "value": "<5.7E+01"}, {"measurement": "2 hr Contact Time Log10", "setting": "[2]; Cu 165 ppm", "value": "<1.75"}, {"measurement": "2 hr Contact Time % ↓", "setting": "[2]; Cu 165 ppm", "value": "≥99.920", "unit": "%"}, {"measurement": "2 hr Contact Time Log10 ↓", "setting": "[2]; Cu 165 ppm", "value": "≥3.10"}, {"measurement": "2 hr Contact Time Avg", "setting": "[2]; Cu 330 ppm", "value": "<1.0E+01"}, {"measurement": "2 hr Contact Time Log10", "setting": "[2]; Cu 330 ppm", "value": "<1.00"}, {"measurement": "2 hr Contact Time % ↓", "setting": "[2]; Cu 330 ppm", "value": "≥99.986", "unit": "%"}, {"measurement": "2 hr Contact Time Log10 ↓", "setting": "[2]; Cu 330 ppm", "value": "≥3.85"}, {"measurement": "2 hr Contact Time Avg", "setting": "[2]; Cu 824 ppm", "value": "<4.0E+01"}, {"measurement": "2 hr Contact Time Log10", "setting": "[2]; Cu 824 ppm", "value": "<1.60"}, {"measurement": "2 hr Contact Time % ↓", "setting": "[2]; Cu 824 ppm", "value": "≥99.944", "unit": "%"}, {"measurement": "2 hr Contact Time Log10 ↓", "setting": "[2]; Cu 824 ppm", "value": "≥3.25"}, {"measurement": "2 hr Contact Time Avg", "setting": "[2]; Cu 1650 ppm", "value": "<1.0E+01"}, {"measurement": "2 hr Contact Time Log10", "setting": "[2]; Cu 1650 ppm", "value": "<1.00"}, {"measurement": "2 hr Contact Time % ↓", "setting": "[2]; Cu 1650 ppm", "value": "≥99.986", "unit": "%"}, {"measurement": "2 hr Contact Time Log10 ↓", "setting": "[2]; Cu 1650 ppm", "value": "≥3.85"}, {"measurement": "2 hr Contact Time Avg", "setting": "[3]; Cu 165 ppm", "value": "1.2E+03"}, {"measurement": "2 hr Contact Time Log10", "setting": "[3]; Cu 165 ppm", "value": 3.08}, {"measurement": "2 hr Contact Time % ↓", "setting": "[3]; Cu 165 ppm", "value": 93.632, "unit": "%"}, {"measurement": "2 hr Contact Time Log10 ↓", "setting": "[3]; Cu 165 ppm", "value": 1.20}, {"measurement": "2 hr Contact Time Avg", "setting": "[3]; Cu 330 ppm", "value": "1.3E+03"}, {"measurement": "2 hr Contact Time Log10", "setting": "[3]; Cu 330 ppm", "value": 3.13}, {"measurement": "2 hr Contact Time % ↓", "setting": "[3]; Cu 330 ppm", "value": 92.912, "unit": "%"}, {"measurement": "2 hr Contact Time Log10 ↓", "setting": "[3]; Cu 330 ppm", "value": 1.15}, {"measurement": "2 hr Contact Time Avg", "setting": "[3]; Cu 824 ppm", "value": "<4.7E+01"}, {"measurement": "2 hr Contact Time Log10", "setting": "[3]; Cu 824 ppm", "value": "<1.67"}, {"measurement": "2 hr Contact Time % ↓", "setting": "[3]; Cu 824 ppm", "value": "≥99.754", "unit": "%"}, {"measurement": "2 hr Contact Time Log10 ↓", "setting": "[3]; Cu 824 ppm", "value": "≥2.61"}, {"measurement": "2 hr Contact Time Avg", "setting": "[3]; Cu 1650 ppm", "value": "2.7E+01"}, {"measurement": "2 hr Contact Time Log10", "setting": "[3]; Cu 1650 ppm", "value": 1.43}, {"measurement": "2 hr Contact Time % ↓", "setting": "[3]; Cu 1650 ppm", "value": 99.860, "unit": "%"}, {"measurement": "2 hr Contact Time Log10 ↓", "setting": "[3]; Cu 1650 ppm", "value": 2.85}, {"measurement": "2 hr Contact Time Avg", "setting": "[4]; Cu 165 ppm", "value": "6.3E+01"}, {"measurement": "2 hr Contact Time Log10", "setting": "[4]; Cu 165 ppm", "value": 1.80}, {"measurement": "2 hr Contact Time % ↓", "setting": "[4]; Cu 165 ppm", "value": 99.936, "unit": "%"}, {"measurement": "2 hr Contact Time Log10 ↓", "setting": "[4]; Cu 165 ppm", "value": 3.20}, {"measurement": "2 hr Contact Time Avg", "setting": "[4]; Cu 330 ppm", "value": "<2.0E+01"}, {"measurement": "2 hr Contact Time Log10", "setting": "[4]; Cu 330 ppm", "value": "<1.30"}, {"measurement": "2 hr Contact Time % ↓", "setting": "[4]; Cu 330 ppm", "value": "≥99.980", "unit": "%"}, {"measurement": "2 hr Contact Time Log10 ↓", "setting": "[4]; Cu 330 ppm", "value": "≥3.70"}, {"measurement": "2 hr Contact Time Avg", "setting": "[4]; Cu 824 ppm", "value": "<4.0E+01"}, {"measurement": "2 hr Contact Time Log10", "setting": "[4]; Cu 824 ppm", "value": "<1.60"}, {"measurement": "2 hr Contact Time % ↓", "setting": "[4]; Cu 824 ppm", "value": "≥99.960", "unit": "%"}, {"measurement": "2 hr Contact Time Log10 ↓", "setting": "[4]; Cu 824 ppm", "value": "≥3.40"}, {"measurement": "2 hr Contact Time Avg", "setting": "[4]; Cu 1650 ppm", "value": "<1.0E+01"}, {"measurement": "2 hr Contact Time Log10", "setting": "[4]; Cu 1650 ppm", "value": "<1.00"}, {"measurement": "2 hr Contact Time % ↓", "setting": "[4]; Cu 1650 ppm", "value": "≥99.990", "unit": "%"}, {"measurement": "2 hr Contact Time Log10 ↓", "setting": "[4]; Cu 1650 ppm", "value": "≥4.00"}, {"measurement": "2 hr Contact Time Avg", "setting": "[5]", "value": "1.0E+00"}, {"measurement": "2 hr Contact Time Log10", "setting": "[5]", "value": 0.00}, {"measurement": "2 hr Contact Time % ↓", "setting": "[5]; relative to uncoated substrate", "value": 99.9964, "unit": "%"}, {"measurement": "2 hr Contact Time Log10 ↓", "setting": "[5]; relative to uncoated substrate", "value": 4.45}, {"measurement": "2 hr Contact Time Avg", "setting": "[6]", "value": "6.6E+01"}, {"measurement": "2 hr Contact Time Log10", "setting": "[6]", "value": 1.82}, {"measurement": "2 hr Contact Time % ↓", "setting": "[6]; relative to uncoated substrate", "value": 99.9287, "unit": "%"}, {"measurement": "2 hr Contact Time Log10 ↓", "setting": "[6]; relative to uncoated substrate", "value": 3.15}, {"measurement": "antifungal test pass/fail", "setting": "[7]; 167 ppm Cu", "value": "fails"}, {"measurement": "antifungal test pass/fail", "setting": "[7]; 333 ppm Cu", "value": "passes"}, {"measurement": "Avg Rating", "setting": "[7]; Cu level 167 ppm, no Quat", "value": 7.7}, {"measurement": "Avg Rating", "setting": "[7]; Cu level 333 ppm, no Quat", "value": 9.3}]}, {"compound": "N,N-Didecyl-N,N-dimethylammonium carbonate/bicarbonate [reference compound]", "values": [{"measurement": "Avg Rating", "setting": "[7]; [8]", "value": 3.3}]}, {"compound": "CCCCCCCCCCCCN(C)C", "note": "[Lauryl Dimethyl Amine, reference compound]", "values": [{"measurement": "Avg Rating", "setting": "[7]; [8]", "value": 2.7}]}]}
